Measurements taken from patent US7285392B2, “Methods for identifying active compounds” (Biovitrum AB, priority 2003, dated 2007).

Columns and labels:
[1] = test system: protein interactions with AP2 DNA probe; assay: EMSA with AP2 DNA probe, nuclear extracts of GHR-transfected WRL-68 cells; format: cell-based, human; conditions: stimulated
Description: (§1) Cell culture: WRL-68 cells, a human fetal hepatic cell-line, were cultured in EMEM medium with NaHCO3 (Statens Veterinärmedicinska Anstalt), supplemented with 10% fetal bovine serum (FBS), 2% L-Glutamine, 1% Pyruvate and 1% Non essential amino acids (NEA), all from GIBCO. The cells were sub-cultivated twice weekly by trypsination to maintain a cell density of approximately 80%.
(§2) Transfection: Cells were transfected with human full-length GH-receptor (pMB1288, 2 μg/μl) by using DOTAP Liposomal Transfection Reagent (Roche), according to manufacturers manual. With this reagent a cationic liposome-mediated transfection method (lipofection) is used. […]
(§3) Extraction of nuclear proteins: To extract the proteins from the nuclei, the nuclear pellets were re-suspended in 2×lysis buffer with protease and phosphatase inhibitors (100 mM HEPES, pH 7.6, 300 mM NaCl, 10 mM EDTA (GIBCO), 2% Triton X-100 (Sigma), 0.2 mM PMSF, 0.2 mM sodium orto-vanadate, 2 nM okadaic acid, 1×complete), or EMSA buffer with inhibitors (20 mM Tris pH 8.0, 1.5 mM MgCl2, 0.2 mM EDTA, 25% glycerol, 0.5 mM PMSF, 0.2 mM sodium ortho-vanadate, 2 nM okadaic acid, 1×complete protease inhibitor), depending on whether the samples should also be used in electrophoresis mobility shift assays (EMSA) or not. For an optimal protein extraction, three different methods were evaluated. […]

[2] = test system: AP1 transcription factor binding to AP1 DNA probe; assay: EMSA with AP1 DNA probe (control), nuclear extracts of non-transfected WRL-68 cells; format: cell-based, human; conditions: stimulated
Description: as §1
(§4) Stimulation: Cells were stimulated two days after transfection at a confluence of approximately 80%. […]
(§5) Extraction of nuclear proteins: To extract the proteins from the nuclei, the nuclear pellets were re-suspended in 2×lysis buffer with protease and phosphatase inhibitors (100 mM HEPES, pH 7.6, 300 mM NaCl, 10 mM EDTA (GIBCO), 2% Triton X-100 (Sigma), 0.2 mM PMSF, 0.2 mM sodium orto-vanadate, 2 nM okadaic acid, 1×complete), or EMSA buffer with inhibitors (20 mM Tris pH 8.0, 1.5 mM MgCl2, 0.2 mM EDTA, 25% glycerol, 0.5 mM PMSF, 0.2 mM sodium ortho-vanadate, 2 nM okadaic acid, 1×complete protease inhibitor), depending on whether the samples should also be used in electrophoresis mobility shift assays (EMSA) or not. For an optimal protein extraction, three different methods were evaluated. […] Optimal extraction was evaluated by Western blot and protein concentration determination as described below. […]

[3] = test system: protein interactions with OCT1 DNA probe; assay: EMSA with OCT1 DNA probe, nuclear extracts of WRL-68 cells; format: cell-based, human; conditions: stimulated
Description: as §1, §2, §3

GH-inducible mRNA = GH-inducible mRNA level; format: cell-based
[4] = target: T1, GH receptor interaction with other transcription factors (Homo sapiens, UniProt P10912); assay: Electrophoretic mobility shift assays, GH-receptor transfected cells (summary); format: cell-based; conditions: treatment with BVTA
T1 construct: Cells were transfected with human full-length GH-receptor (pMB1288, 2 μg/μl); expressed in transfected cells; host or cells: WRL-68 (human fetal hepatic cell line), plasmid pMB1288
T1 sequence (P10912 19-638): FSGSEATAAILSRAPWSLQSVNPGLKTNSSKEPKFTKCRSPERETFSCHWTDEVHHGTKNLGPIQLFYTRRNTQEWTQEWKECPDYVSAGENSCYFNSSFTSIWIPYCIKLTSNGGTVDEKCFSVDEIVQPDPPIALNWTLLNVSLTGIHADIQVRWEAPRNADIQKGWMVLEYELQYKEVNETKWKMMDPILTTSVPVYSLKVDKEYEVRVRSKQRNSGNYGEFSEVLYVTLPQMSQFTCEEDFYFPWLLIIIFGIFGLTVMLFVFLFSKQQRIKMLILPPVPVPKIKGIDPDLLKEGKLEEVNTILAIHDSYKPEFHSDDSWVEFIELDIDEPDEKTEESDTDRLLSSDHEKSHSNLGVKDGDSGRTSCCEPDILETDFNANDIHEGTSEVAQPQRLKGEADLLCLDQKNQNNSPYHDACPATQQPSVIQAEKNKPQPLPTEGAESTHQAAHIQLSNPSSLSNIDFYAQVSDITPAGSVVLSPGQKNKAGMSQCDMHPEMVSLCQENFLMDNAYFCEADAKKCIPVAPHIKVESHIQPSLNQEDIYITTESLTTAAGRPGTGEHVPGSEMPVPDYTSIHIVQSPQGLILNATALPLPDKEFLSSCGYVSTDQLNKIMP
Description: Electrophoretic Mobility Shift Assay: Electrophoretic Mobility Shift Assay (EMSA) is a method used to investigate protein-DNA interactions. A DNA probe with a known sequence is end-labeled with ^33P-ATP and then incubated with nuclear extracts. Proteins that bind specifically to the DNA-probe will reduce the mobility of the complex when separated on a non-denaturing poly acryl-amid gel and a shifted band can be seen. To identify proteins bound to the DNA-probe, an antibody can be added to the nuclear extract before incubation with the DNA-probe. If the antibody recognizes a protein that binds to the DNA, the mobility of the complex will be reduced even further and cause a supershift.

[5] = test system: protein interactions with GHRE DNA probe; assay: EMSA with GHRE DNA probe, nuclear extracts of GHR-transfected and non-transfected WRL-68 cells; format: cell-based, human
Description: as §1
Transfection: Cells were transfected with human full-length GH-receptor (pMB1288, 2 μg/μl) by using DOTAP Liposomal Transfection Reagent (Roche), according to manufacturers manual. With this reagent a cationic liposome-mediated transfection method (lipofection) is used. T75 flasks with WRL-68 cells were transfected with 10 μg DNA for each flask. 5 μl (10 μg) DNA was diluted with 250 μl OPTIMEM1 medium (GIBCO) and mixed gently with 75 μl DOTAP reagent diluted in 175 μl OPTIMEM1 medium. The mixture was incubated for 10 minutes and then mixed gently with 10 ml OPTIMEM1 medium. Cells were washed once and then incubated for 4 hours with the DNA/DOTAP transfection mix, which was then changed to fresh culture medium. Cells were re-seeded into new culture dishes the following day.
as §4, §5

[6] = test system: protein-DNA interaction with AP2 DNA probe; assay: EMSA with AP2 DNA probe, HX rat liver nuclear extracts; set-up: species or system Sprague Dawley rat; conditions: hGH stimulated animals compared to control animals
Description: (§6) Nuclear and cytosolic fractions were prepared from hypophysectomized Sprague Dawley rat livers (ethical license N176/02). The rats had minipumps implanted at 5 weeks of age for administration of hGH. Control animals were not stimulated and thus completely GH-deficient while GH-animals were stimulated continuously with hGH 0.12 mg/kg/day for five days. Animals were anaesthetized and livers were cut out and placed in ice-cold PBS. Livers were then cut into smaller pieces and transferred to 8 ml ice-cold hypotonic buffer with protease and phosphatase inhibitors and were allowed to swell on ice for 10 minutes. […]
as §3

[7] = test system: protein-DNA binding to OCT1 DNA probe; assay: EMSA with OCT1 DNA probe, HX rat liver nuclear extracts; set-up: species or system Sprague Dawley rat; conditions: HX rats stimulated with hGH vs control animals
Description: as §6, §3

[8] = test system: protein-DNA binding to GHRE DNA probe; assay: EMSA with GHRE DNA probe, HX rat liver nuclear extracts; set-up: species or system Sprague Dawley rat; conditions: HX rats stimulated with hGH vs control animals
Description: as §6, §3

Compound | protein-DNA interaction, top specific band, AP2 probe [1] | effect on AP1 shifted band [2] | protein-DNA interaction, top specific band, OCT1 probe [3] | GH-inducible mRNA (GH-inducible mRNA) | interaction of GH receptor with other transcription factors [4] | protein-DNA interaction in top shifted band, GHRE probe ([5]; GHR-transfected WRL-68 cells stimulated with BVTA) | effect on GHRE top weak band ([5]; non-transfected WRL-68 cells, stimulated) | protein-DNA binding, AP2 probe, hGH stimulation [6] | protein-DNA binding, OCT1 probe, hGH stimulation [7] | effect of stimulation on shifted bands, GHRE probe ([5]; both GHR-transfected and non-transfected WRL-68 cells) | protein-DNA binding, GHRE probe, hGH stimulation [8]
Cc1ccc(S(N)(=O)=O)cc1NC(=O)c1ccc(Br)o1 [BVTA, N-[5-(aminosulfonyl)-2-methylphenyl]-5-bromo-2-furamide] | broke the protein-DNA interaction | no effects | decreased | decrease | down regulated | disrupted | no effect |  |  |  | 
hGH: human growth hormone (Genotropin, Pharmacia) | no effects | no effects | No effects |  |  |  |  | No difference in protein-DNA binding | did not show any differences | No effect | did not show any differences
